Reference: ChEMBL document CHEMBL1139614, “Synthesis and antibacterial activity of novel (un)substituted benzotriazolyl oxazolidinone derivatives” (2005)
In brackets after ≈: the same amount, converted by molar mass. Activity calls are given as the source filed them. The rule behind the calls is not given here.

Columns and labels:
Bacillus pumilus [1] = test: In vitro minimum inhibitory concentration against Bacillus pumilus (ATCC 14884); type: functional
Pseudomonas aeruginosa [2] = test: In vitro minimum inhibitory concentration against Pseudomonas aeruginosa (ATCC 27853); type: functional
Enterococcus faecium [3] = test: In vitro minimum inhibitory concentration against Enterococcus faecium (6A-VRE); type: functional
[4] = tested on: Staphylococcus epidermidis; test: In vitro minimum inhibitory concentration against methicillin-resistant Staphylococcus epidermidis (ATCC 23760); type: functional
Staphylococcus aureus [5] = test: In vitro minimum inhibitory concentration against methicillin-resistant Staphylococcus aureus (ST450, ATCC 15187, ICH 1 and 37); type: functional
[6] = tested on: Salmonella enterica subsp. enterica serovar Abony; test: In vitro minimum inhibitory concentration against Salmonella abony (NCTC 6017); type: functional
Escherichia coli [7] = test: In vitro minimum inhibitory concentration against Escherichia coli (ATCC 25922); type: functional
[8] = tested on: Staphylococcus saprophyticus; test: In vitro minimum inhibitory concentration against Staphylococcus saprophyticus (ATCC 15305); type: functional
Enterococcus faecalis [9] = test: In vitro minimum inhibitory concentration against Enterococcus faecalis (ATCC 29212 and 21777); type: functional
Enterococcus faecalis [10] = test: In vitro minimum inhibitory concentration against Enterococcus faecalis [(VRE) ATCC 346-VRE and 5B-VRE]; type: functional
[11] = tested on: Staphylococcus epidermidis; test: In vitro minimum inhibitory concentration against Staphylococcus epidermidis (ATCC 12228); type: functional
Staphylococcus aureus [12] = test: In vitro minimum inhibitory concentration against Staphylococcus aureus (ATCC 25923 and 29213); type: functional
Staphylococcus aureus [13] = test: In vitro minimum inhibitory concentration against Staphylococcus aureus (ATCC 25923 and 29213); NA= Not active in preliminary screening up to 50 ug/mL; type: functional, organism-based
Enterococcus faecalis [14] = test: In vitro minimum inhibitory concentration against Enterococcus faecalis (ATCC 29212 and 21777); NA= Not active in preliminary screening up to 50 ug/mL; type: functional, organism-based
[15] = tested on: Staphylococcus epidermidis; test: In vitro minimum inhibitory concentration against Staphylococcus epidermidis (ATCC 12228); NA= Not active in preliminary screening up to 50 ug/mL; type: functional, organism-based
Enterococcus faecium [16] = test: In vitro minimum inhibitory concentration against Enterococcus faecium (6A-VRE); NA= Not active in preliminary screening up to 50 ug/mL; type: functional, organism-based
Staphylococcus aureus [17] = test: In vitro minimum inhibitory concentration against methicillin-resistant Staphylococcus aureus (ST450, ATCC 15187, ICH 1 and 37); NA= Not active in preliminary screening up to 50 ug/mL; type: functional, organism-based
[18] = tested on: Staphylococcus saprophyticus; test: In vitro minimum inhibitory concentration against Staphylococcus saprophyticus (ATCC 15305); NA= Not active in preliminary screening up to 50 ug/mL; type: functional, organism-based
Pseudomonas aeruginosa [19] = test: In vitro minimum inhibitory concentration against Pseudomonas aeruginosa (ATCC 27853); NA= Not active in preliminary screening up to 50 ug/mL; type: functional, organism-based
[20] = tested on: Salmonella enterica subsp. enterica serovar Abony; test: In vitro minimum inhibitory concentration against Salmonella abony (NCTC 6017); NA= Not active in preliminary screening up to 50 ug/mL; type: functional, organism-based
Enterococcus faecalis [21] = test: In vitro minimum inhibitory concentration against Enterococcus faecalis [(VRE) ATCC 346-VRE and 5B-VRE]; NA= Not active in preliminary screening up to 50 ug/mL; type: functional, organism-based
[22] = tested on: Staphylococcus epidermidis; test: In vitro minimum inhibitory concentration against methicillin-resistant Staphylococcus epidermidis (ATCC 23760); NA= Not active in preliminary screening up to 50 ug/mL; type: functional, organism-based
Bacillus pumilus [23] = test: In vitro minimum inhibitory concentration against Bacillus pumilus (ATCC 14884); NA= Not active in preliminary screening up to 50 ug/mL; type: functional, organism-based
Escherichia coli [24] = test: In vitro minimum inhibitory concentration against Escherichia coli (ATCC 25922); NA= Not active in preliminary screening up to 50 ug/mL; type: functional, organism-based
Staphylococcus aureus [25] = test: In vitro minimum inhibitory concentration against methicillin-resistant Staphylococcus aureus (ST450, ATCC 15187, ICH 1 and 37); Range= 0.125-0.25 ug/mL; type: functional
[26] = tested on: Staphylococcus epidermidis; test: In vitro minimum inhibitory concentration against Staphylococcus epidermidis (ATCC 12228); Range= 0.125-0.25 ug/mL; type: functional
Enterococcus faecalis [27] = test: In vitro minimum inhibitory concentration against Enterococcus faecalis [(VRE) ATCC 346-VRE and 5B-VRE]; Range= 0.125-0.25 ug/mL; type: functional
Staphylococcus aureus [28] = test: In vitro minimum inhibitory concentration against Staphylococcus aureus (ATCC 25923 and 29213); Range 2-4 ug/mL; type: functional

CN(C)CCO/C(S)=N/C[C@H]1CN(c2ccc(-n3nnc4ccccc43)c(F)c2)C(=O)O1
MIC (Bacillus pumilus [1]): > 16 µg/mL | MIC (Pseudomonas aeruginosa [2]): > 16 µg/mL | MIC (Enterococcus faecium [3]): > 16 µg/mL | MIC [4]: > 16 µg/mL | MIC (Staphylococcus aureus [5]): > 16 µg/mL | MIC [6]: > 16 µg/mL | MIC (Escherichia coli [7]): > 16 µg/mL | MIC [8]: > 16 µg/mL | MIC (Enterococcus faecalis [9]): > 16 µg/mL | MIC (Enterococcus faecalis [10]): > 16 µg/mL | MIC [11]: > 16 µg/mL | MIC (Staphylococcus aureus [12]): > 16 µg/mL

O=C1O[C@@H](C/N=C(\S)OCC(F)(F)C(F)F)CN1c1ccc(-n2nnc3ccccc32)c(F)c1
MIC (Staphylococcus aureus [13]): inactive | MIC (Enterococcus faecalis [14]): inactive | MIC [15]: inactive | MIC (Enterococcus faecium [16]): inactive | MIC (Staphylococcus aureus [17]): inactive | MIC [18]: inactive | MIC (Pseudomonas aeruginosa [19]): inactive | MIC (Escherichia coli [7]): inactive | MIC [20]: inactive | MIC (Enterococcus faecalis [21]): inactive | MIC [22]: inactive | MIC (Bacillus pumilus [23]): inactive

O=C1O[C@@H](C/N=C(\S)OCC(F)(F)F)CN1c1ccc(-n2nnc3ccccc32)c(F)c1
MIC (Escherichia coli [24]): inactive | MIC (Staphylococcus aureus [13]): inactive | MIC (Enterococcus faecalis [14]): inactive | MIC [15]: inactive | MIC (Enterococcus faecium [16]): inactive | MIC (Staphylococcus aureus [17]): inactive | MIC [18]: inactive | MIC (Pseudomonas aeruginosa [19]): inactive | MIC [20]: inactive | MIC (Enterococcus faecalis [21]): inactive | MIC [22]: inactive | MIC (Bacillus pumilus [23]): inactive

N=C(S)NC[C@H]1CN(c2ccc(-n3nnc4ccccc43)c(F)c2)C(=O)O1
MIC (Bacillus pumilus [1]): 0.25 µg/mL (≈ 0.647 µM) | MIC (Pseudomonas aeruginosa [2]): > 16 µg/mL | MIC (Enterococcus faecium [3]): 16 µg/mL (≈ 41.4 µM) | MIC [4]: 0.125 µg/mL (≈ 0.323 µM) | MIC (Staphylococcus aureus [5]): 0.25 µg/mL (≈ 0.647 µM) | MIC [6]: > 16 µg/mL | MIC (Escherichia coli [7]): > 16 µg/mL | MIC (Enterococcus faecalis [9]): 0.25 µg/mL (≈ 0.647 µM) | MIC (Enterococcus faecalis [10]): 0.25 µg/mL (≈ 0.647 µM) | MIC [11]: 0.25 µg/mL (≈ 0.647 µM) | MIC (Staphylococcus aureus [12]): 0.25 µg/mL (≈ 0.647 µM)

COC(=O)c1ccc2c(c1)nnn2-c1ccc(N2C[C@H](C/N=C(\S)OC)OC2=O)cc1F
MIC (Pseudomonas aeruginosa [2]): > 16 µg/mL | MIC (Enterococcus faecium [3]): 0.25 µg/mL (≈ 0.544 µM) | MIC [4]: 0.125 µg/mL (≈ 0.272 µM) | MIC (Staphylococcus aureus [5]): 0.25 µg/mL (≈ 0.544 µM) | MIC (Escherichia coli [7]): > 16 µg/mL | MIC [8]: 0.25 µg/mL (≈ 0.544 µM) | MIC (Enterococcus faecalis [9]): 0.125 µg/mL (≈ 0.272 µM) | MIC (Enterococcus faecalis [10]): 0.25 µg/mL (≈ 0.544 µM) | MIC [11]: 0.25 µg/mL (≈ 0.544 µM) | MIC (Staphylococcus aureus [12]): 0.25 µg/mL (≈ 0.544 µM)

O=C1O[C@@H](CN/C(S)=N/CCCO)CN1c1ccc(-n2nnc3ccccc32)c(F)c1
MIC (Escherichia coli [24]): inactive | MIC (Staphylococcus aureus [13]): inactive | MIC (Enterococcus faecalis [14]): inactive | MIC [15]: inactive | MIC (Enterococcus faecium [16]): inactive | MIC (Staphylococcus aureus [17]): inactive | MIC [18]: inactive | MIC (Pseudomonas aeruginosa [19]): inactive | MIC [20]: inactive | MIC (Enterococcus faecalis [21]): inactive | MIC [22]: inactive | MIC (Bacillus pumilus [23]): inactive

CCN(CC)CC/N=C(\S)NC[C@H]1CN(c2ccc(-n3nnc4ccccc43)c(F)c2)C(=O)O1
MIC (Bacillus pumilus [1]): > 16 µg/mL | MIC (Pseudomonas aeruginosa [2]): > 16 µg/mL | MIC (Enterococcus faecium [3]): > 16 µg/mL | MIC [4]: > 16 µg/mL | MIC (Staphylococcus aureus [5]): > 16 µg/mL | MIC [6]: > 16 µg/mL | MIC (Escherichia coli [7]): > 16 µg/mL | MIC (Enterococcus faecalis [9]): > 16 µg/mL | MIC (Enterococcus faecalis [10]): > 16 µg/mL | MIC [11]: > 16 µg/mL | MIC (Staphylococcus aureus [12]): > 16 µg/mL

COC(=O)c1ccc2c(c1)nnn2-c1ccc(N2C[C@H](C/N=C(/N)S)OC2=O)cc1F
MIC (Pseudomonas aeruginosa [2]): > 16 µg/mL | MIC (Enterococcus faecium [3]): 0.25 µg/mL (≈ 0.562 µM) | MIC (Staphylococcus aureus [25]): 0.25 µg/mL (≈ 0.562 µM) | MIC [4]: 0.125 µg/mL (≈ 0.281 µM) | MIC [26]: 0.25 µg/mL (≈ 0.562 µM) | MIC (Escherichia coli [7]): > 16 µg/mL | MIC (Enterococcus faecalis [27]): 0.25 µg/mL (≈ 0.562 µM) | MIC [8]: 0.25 µg/mL (≈ 0.562 µM) | MIC (Enterococcus faecalis [9]): 0.125 µg/mL (≈ 0.281 µM) | MIC (Staphylococcus aureus [12]): 0.25 µg/mL (≈ 0.562 µM)

O=C1O[C@@H](CN/C(S)=N/CCO)CN1c1ccc(-n2nnc3ccccc32)c(F)c1
MIC (Pseudomonas aeruginosa [2]): > 16 µg/mL | MIC (Enterococcus faecium [3]): 1 µg/mL (≈ 2.32 µM) | MIC [4]: 0.5 µg/mL (≈ 1.16 µM) | MIC (Staphylococcus aureus [5]): 2 µg/mL (≈ 4.65 µM) | MIC [6]: > 16 µg/mL | MIC (Escherichia coli [7]): > 16 µg/mL | MIC (Enterococcus faecalis [9]): 1 µg/mL (≈ 2.32 µM) | MIC (Enterococcus faecalis [10]): 1 µg/mL (≈ 2.32 µM) | MIC [11]: 2 µg/mL (≈ 4.65 µM) | MIC (Staphylococcus aureus [28]): 4 µg/mL (≈ 9.29 µM)

O=C1O[C@@H](C/N=C(\S)OCCO)CN1c1ccc(-n2nnc3ccccc32)c(F)c1
MIC (Bacillus pumilus [1]): > 16 µg/mL | MIC (Pseudomonas aeruginosa [2]): > 16 µg/mL | MIC (Enterococcus faecium [3]): > 16 µg/mL | MIC [4]: > 16 µg/mL | MIC (Staphylococcus aureus [5]): > 16 µg/mL | MIC [6]: > 16 µg/mL | MIC (Escherichia coli [7]): > 16 µg/mL | MIC (Enterococcus faecalis [9]): > 16 µg/mL | MIC (Enterococcus faecalis [10]): > 16 µg/mL | MIC [11]: > 16 µg/mL | MIC (Staphylococcus aureus [12]): > 16 µg/mL

CO/C(S)=N/C[C@H]1CN(c2ccc(-n3nnc4ccccc43)c(F)c2)C(=O)O1
MIC (Bacillus pumilus [1]): > 16 µg/mL | MIC (Pseudomonas aeruginosa [2]): > 16 µg/mL | MIC (Enterococcus faecium [3]): 1 µg/mL (≈ 2.49 µM) | MIC [4]: 0.25 µg/mL (≈ 0.623 µM) | MIC (Staphylococcus aureus [5]): 1 µg/mL (≈ 2.49 µM) | MIC [6]: > 16 µg/mL | MIC (Escherichia coli [7]): > 16 µg/mL | MIC (Enterococcus faecalis [9]): 1 µg/mL (≈ 2.49 µM) | MIC (Enterococcus faecalis [10]): 1 µg/mL (≈ 2.49 µM) | MIC [11]: 0.25 µg/mL (≈ 0.623 µM) | MIC (Staphylococcus aureus [12]): 1 µg/mL (≈ 2.49 µM)

CC(=O)NC[C@H]1CN(c2ccc(N3CCOCC3)c(F)c2)C(=O)O1 [LINEZOLID]
MIC (Pseudomonas aeruginosa [2]): > 16 µg/mL | MIC (Enterococcus faecium [3]): 2 µg/mL (≈ 5.93 µM) | MIC [4]: 2 µg/mL (≈ 5.93 µM) | MIC [6]: > 16 µg/mL | MIC (Escherichia coli [7]): > 16 µg/mL | MIC [8]: > 16 µg/mL | MIC [11]: 2 µg/mL (≈ 5.93 µM)
